One series concerns B16/F0 murine melanoma. As to the kind of experiment: In-vivo tumor uptake and biodistribution. Further details: species or system C57B16 mice. Conditions: mouse, in vivo. The method, then: In-Vivo Tumor Uptake. To study the tumor uptake of ^99mTc-complexes, Tc-(Compound A-D and J-K), in vivo, biodistribution experiments at 1 h and 6 h after their administration were carried out in C57B16 mice with palpable B16 melanoma nodules. The biodistribution data including melanoma/nontumor (M/NT) ratios for selected organs are summarized in Table 4 and 5 as percentage injected dose per gram ([…]).
Animal Studies. All animal experiments were performed in compliance with the Principles of Laboratory Animal Care (NIH publication #85-23, revised 1985). Biodistribution studies and tumor-uptake measurements were performed in C57B16 mice (15 to 20 g) bearing the B16/F0 murine melanoma on the hind limb. See for example the studies described in, which are hereby incorporated by reference, Brandau, W.; Niehoff, T.; Pulawski, P.; Jonas, M.; Dutschka, K.; Sciuk, J.; Coenen, H. H.; Schober, O. Structure Distribution Relationship of Iodine-123-Iodobenzamides as Tracers for the Detection of Melanotic Melanoma. J. Nucl. Med. 1996, 37, 1865-1871; Mohanmmed, A.; Nicholl, C.; Titsch, U.; Eisenhut, M. Radiojodinated N-(Alkylaminoalkyl)-Substituted 4-Methoxy-, 4-Hydroxy-, and 4-Aminobenzamides: Biological Investigations for the Improvement of Melanoma-Imaging Agents. Nucl. Med. Biol. 1997, 24, 373-380; Titsch, U.; Mohammed, A.; Wagner, S.; Oberdorfer, F.; Eisenhut, M. Syntheses of N-(2-Diethylaminoethyl)benzamides Suitable for ^99mTc Complexation. J. Labelled Compd. Radiopharm. 1997, 40, 416-418; Dittmann, H.; Coenen, H. H.; Zölzer, F.; Dutschka, K.; Brandau, W.; Streffer, C. In Vitro Studies on the Cellular Uptake of Melanoma Imaging Aminoalkyl-iodobenzamide Derivatives (ABA). Nucl. Med. Biol. 1999, 26, 51-56; and Michelot, J. M.; Moreau, M. F. C.; Veyre, A. J.; Bonafous, J. F.; Bacin, F. J.; Madelmont, J. C.; Bussiere, F.; Souteyrand, P. A.; Mauclaire, L. P.; Chossat, F. M.; Papon, J. M.; Labarre, P. G.; Kauffmann, Ph.; Plagne, R. J. Phase II Scintigraphic Clinical Trial of Malignant Melanoma and Metastases with Iodine-123-N-(2-Diethylaminoethyl 4-Iodobenzamide). J. Nucl. Med. 1993, 34, 1260-1266. The tumor cells (B16/F0), obtained from ATCC, were washed with PBS and transplanted subcutaneously on the left hind flank by an inoculation of 0.5×10^6 cells (0.1 mL). Ten to 14 days later the animals developed palpable tumor nodules 3 to 5 mm in diameter. The biodistribution studies were carried out by tail-vein injection of 25 to 30 μCi (0.05 to 0.1 mL) of the ^99mTc-labeled complexes Tc-(Compound A-D, H, J, K or M). At the designated time after tail-vein administration, the animals were weighed and sacrificed. The organs and tumors were harvested and, when appropriate, blotted dry, weighed, and counted in a gamma counter along with technetium-99m standards of the injected dose. The results are expressed as % ID/g tissue (Table 4 and 5)

The next series deals with B16/F0 cells. The experiment in a line: Tumor-cell uptake in the presence of DTG. The settings on record: DTG 90 μM, 30 min prior, 37° C. It counts as cell-based, murine. The source says: J. Labelled Compd. Radiopharm. 1994, 35, 242-244; Vilner, B. J.; John, C. S.; Bowen, W. D. Sigma-I and Sigma-2 Receptors Are Expressed in a Wide Variety of Human and Rodent Tumor Cell Lines. Cancer Res. 1995, 55, 408-413; and John, C. S.; Vilner, B. J.; Gulden, M. E.; Efange, S. M. N.; Langason, R. B.; Moody, T. W.; Bowen, W. D. Synthesis and Pharmacological Characterization of 4-[^125I]-N-(N-Benzylpiperidin-4-yl)-4-iodobenzamide: A High Affinity σ Receptor Ligand for Potential Imaging of Breast Cancer. […] Pre-incubation of the tumor cells with DTG (90 μM), 30 min prior to the uptake experiments with the ^99mTc-complexes, yields a lower tumor-cell uptake for complexes Tc-(Compound A) (29% less), Tc-(Compound C) (33% less), and Tc-(Compound D) (32% less) at 37° C. (FIG. 4). Additional dose-response experiments conducted with intact B16/F0 cells at 37° C. with Tc-(Compound C) and DTG as the inhibitor (FIG. 3) show a DTG concentration-dependent decrease in the uptake of the complex.
The effect of the inhibitor DTG on cell uptake of these complexes was studied by addition of the inhibitor at various concentrations to the cell suspension 30 min prior to addition of the ^99mTc-complexes. Fresh DTG stock solutions were made by dissolving DTG (3.0 mg, 12.5 μmol) in 0.38 mL PBS and 0.12 mL hydrochloric acid (0.1 N) and subjecting the mixture to ultrasound until a clear solution was obtained, followed by the addition of 0.50 mL FBS to produce a neutral solution at pH 7.4. The stock solutions were diluted by an appropriate amount of S-MEM, and aliquots between 5 μL and 25 μL were added to the cell suspension such that the final concentration of DTG was between 0.02 μM and 120 μM in a total cell suspension volume of 350 μL.

This note sets out measurements from patent US7321027B2, “Small technetium-99m and rhenium labeled agents and methods for imaging tumors” (President and Fellows of Harvard College, priority 2000, dated 2008).

Regarding `CCCCN(CCCC)CCN1CC[S][99Tc]2(=[O])[S]CC[N]2C(=O)C1` (centres unmarked) [Tc-(Compound B)], in the series with B16/F0 murine melanoma, the mel/lung ratio is 2.1.

Take `CCN(CC)CCN1CC[S][99Tc]2(=[O])[S]CC[N]2C(=O)C1` (centres unmarked) [Tc-(Compound A)]: in the series on B16/F0 cells, the “lower tumor-cell uptake after pre-incubation with DTG” value came to 29%.
